Structures can show the parent of a compound that is named as a salt.
Row | Structure (SMILES) | melting point
1 | Cc1cc(-c2cc3ncccc3c(=O)[nH]2)cc(C)c1O (as salt: HCl) [Example 8, 7-(4-hydroxy-3,5-dimethylphenyl)-1,6-naphthyridin-5(6H)-one] | > 350 °C
2 | COc1cc(OC)c2c(=O)[nH]c(-c3cc(C)c(O)c(C)c3)cc2n1 (as salt: HCl) [Example 16, 7-(4-hydroxy-3,5-dimethylphenyl)-2,4-dimethoxy-1,6-naphthyridin-5(6H)-one] | > 324 °C
3 | COc1cc(OC)c2cnc(-c3cc(C)c(OCCN4CCOCC4)c(C)c3)cc2c1 (as salt: HCl) [Example 22, 4-(2-(4-(6,8-dimethoxyisoquinolin-3-yl)-2,6-dimethylphenoxy)ethyl)morpholine] | 239 to 240 °C
4 | COc1cc(OC)c2c(=O)[nH]c(-c3cc(C)c(OCCN(C)C)c(C)c3)cc2c1 (as salt: hydrochloride) [Example 10, 3-(4-(2-(dimethylamino)ethoxy)-3,5-dimethylphenyl)-6,8-dimethoxyisoquinolin-1(2H)-one] | 261 to 263 °C
5 | Cc1cc(-c2cc3ccc(CN4CCOCC4)cc3c(=O)[nH]2)cc(C)c1O (as salt: hydrochloride) [Example 11, 3-(4-hydroxy-3,5-dimethylphenyl)-7-(morpholinomethyl)isoquinolin-1(2H)-one] | 281 to 283 °C
6 | COc1cc(O)nc2cc(-c3cc(C)c(O)c(C)c3)[nH]c(=O)c12 (as salt: hydrochloride) [Example 12, 2-hydroxy-7-(4-hydroxy-3,5-dimethylphenyl)-4-methoxy-1,6-naphthyridin-5(6H)-one] | > 330 °C
7 | COc1cc(OC)c2cnc(-c3cc(C)c(O)c(C)c3)cc2c1 (as salt: hydrochloride) [Example 18, 4-(6,8-dimethoxyisoquinolin-3-yl)-2,6-dimethylphenol] | 255 to 256 °C
8 | COc1cc(OC)c2c(=O)[nH]c(-c3cc(C)c(OCCN4CCOCC4)c(C)c3)nc2c1 (as salt: hydrochloride) [Example 21, 2-(3,5-dimethyl-4-(2-morpholinoethoxy)phenyl)-5,7-dimethoxyquinazolin-4(3H)-one] | 185 to 187 °C
9 | COc1cc(OC)c2c(=O)[nH]c(-c3cc(C)c(OCCN4CCN(C)CC4)c(C)c3)cc2c1 (as salt: hydrochloride) [Example 23] | 195 to 198 °C
10 | COc1cc(OC)c2c(=O)[nH]c(-c3ccccn3)nc2c1 (as salt: hydrochloride) [Example 26, 5,7-dimethoxy-2-(pyridin-2-yl)quinazolin-4(3H)-one] | 215 to 217 °C
11 | COc1cc(OC)c2c(=O)[nH]c(-c3cccnc3)nc2c1 (as salt: hydrochloride) [Example 27, 5,7-dimethoxy-2-(pyridin-3-yl)quinazolin-4(3H)-one] | 257 to 259 °C
12 | COc1cc(OC)c2c(=O)[nH]c(-c3ccncc3)nc2c1 (as salt: hydrochloride) [Example 33, 5,7-dimethoxy-2-(pyridin-4-yl)quinazolin-4(3H)-one] | 294 to 295 °C
13 | Cc1cc(-c2nc3ccccc3c(=O)[nH]2)cc(C)c1OCCN1CCOCC1 (as salt: hydrochloride) [Example 34, 2-(3,5-dimethyl-4-(2-morpholinoethoxy)phenyl)quinazolin-4(3H)-one] | 300 to 302 °C
14 | COc1cc(OC)c2c(=O)[nH]c(-c3ccc(CN4CCN(C)CC4)cc3)nc2c1 (as salt: hydrochloride) [Example 59, 5,7-dimethoxy-2-(4((4-methylpiperazin-1-yl)methyl)phenyl)quinazolin-4(3H)-one] | 275 to 277 °C
15 | Cc1cc(-c2nc3ccc(CN4CCOCC4)cc3c(=O)[nH]2)cc(C)c1O (as salt: hydrochloride) [Example 62, 2-(4-hydroxy-3,5-dimethylphenyl)-6-(morpholinomethyl)quinazolin-4(3H)-one] | 284 to 286 °C
16 | COc1cc(OC)c2c(=O)[nH]c(-c3ccc(CN4CCOCC4)cc3)nc2c1 (as salt: hydrochloride) [Example 66, 5,7-dimethoxy-2-(4-(morpholinomethyl)phenyl)quinazolin-4(3H)-one] | 206 to 208 °C (dec.)
17 | CCN1CCN(Cc2ccc(-c3nc4cc(OC)cc(OC)c4c(=O)[nH]3)cc2)CC1 (as salt: hydrochloride) [Example 67, 2-(4((4-ethylpiperazin-1-yl)methyl)phenyl)-5,7-dimethoxyquinazolin-4(3H)-one] | 278 to 280 °C (dec.)
18 | O=c1[nH]c(-c2ccc(O)cc2)cc2ccccc12 [Example 1, 3-(4-Hydroxyphenyl)-2H-isoquinolin-1-one] | 239 to 241 °C
19 | Oc1ccc(-c2cc3ccccc3cn2)cc1 [Example 2, 4-lsoquinolin-3-yl-phenol] | 218 to 219 °C
20 | Oc1ccc(-c2cc3ncccc3cn2)cc1 [Example 5, 4-(1,6-naphthyridin-7-yl)phenol] | 219 to 221 °C
21 | COc1cc(OC)c2c(=O)[nH]c(-c3ccc(O)cc3)cc2c1 [Example 6, 3-(4-hvdroxyphenyl)-6,8-dimethoxyisoquinolin-1(2H)-one] | 245 to 247 °C
22 | COc1cc(OC)c2c(=O)n(C)c(-c3cc(C)c(O)c(C)c3)cc2c1 [Example 7, 3-(4-hydroxy-3,5-dimethylphenyl)-6,8-dimethoxy-2-methylisoquinolin-1(2H)-one] | 253 to 254 °C
23 | COc1cc(OC)c2c(=O)[nH]c(-c3cc(C)c(OCC(C)(C)O)c(C)c3)cc2c1 [Example 14, 3-(4-(2-hydroxy-2-methylpropoxy)-3,5-dimethylphenyl)-6,8-dimethoxyisoquinolin-1(2H)-one] | 252 to 254 °C
24 | COc1cc2c(c(OC)c1)S(=O)(=O)NC(c1cc(C)c(O)c(C)c1)=C2 [Example 15, 6,8-dimethoxy-3-(4-hydroxy-3,5-dimethylphenyl)-2H-1,2-benzothiazine-1,1-dioxide] | 246.6 to 247.4 °C
25 | COc1cc2cc(-c3cc(C)c(O)c(C)c3)n(C)c(=O)c2c(OC)c1C [Example 17, 3-(4-hydroxy-3,5-dimethylphenyl)-6,8-dimethoxy-2,7-dimethylisoquinolin-1(2H)-one] | 246 to 248 °C
26 | COc1cc(OC)c2c(=O)[nH]c(-c3cc(C(C)(C)C)c(O)c(C(C)(C)C)c3)nc2c1 [Example 28, 2-(3,5-di-tert-butyl-4-hydroxyphenyl)-5,7-dimethoxyquinazolin-4(3H)-one] | 229.7 to 230.5 °C
27 | COc1cc(OC)cc(-c2nc3cc(OC)cc(OC)c3c(=O)[nH]2)c1 [Example 29, 2-(3,5-dimethoxyphenyl)-5,7-dimethoxyquinazolin-4(3H)-one] | 270 to 272 °C
28 | COc1ccc(-c2nc3cc(OC)cc(OC)c3c(=O)[nH]2)cc1 [Example 30, 5,7-dimethoxy-2-(4-methoxyphenyl)quinazolin-4(3H)-one] | 276 to 277 °C
29 | COc1cc(OC)c2c(=O)[nH]c(-c3ccc(O)c(OC)c3)nc2c1 [Example 31, 2-(4-hydroxy-3-methoxyphenyl)-5,7-dimethoxyquinazolin-4(3H)-one] | 294 to 296 °C
30 | COc1cc(OC)c2c(=O)[nH]c(-c3ccc(O)c(Cl)c3)nc2c1 [Example 32, 2-(3-chloro-4-hydroxyphenyl)-5,7-dimethoxyquinazolin-4(3H)-one] | 279 to 281 °C

Source: US10532054B2, “Compounds for the prevention and treatment of cardiovascular diseases” (Resverlogix Corp., priority 2007, dated 2020)
